Experimental data from publication PMC4272579 (The Journal of steroid biochemistry and molecular biology, 2014).
Entries after “also recorded” stand apart in the source; their conditions may differ.

How the values were obtained:
[1] = molecular target: purified and modified human CYP17A1 (Homo sapiens, UniProt P05093); assay: Spectral assay for ligand binding; settings: for type of difference spectrum induced: UV-visible difference spectroscopy; for Kd: read-out: Ks (spectral binding constant), 200 nM CYP17A1, 0.1 M potassium phosphate pH 7.4, 20% glycerol, room temperature, means ± SE of 2-4 experiments
[2] = molecular target: T1, native human CYP17A1 enzyme in yeast microsomes (Homo sapiens, UniProt P05093); assay: CYP17A1 hydroxylase activity assay; format: biochemical; settings: for mode of inhibition: Lineweaver-Burk and Cornish-Bowden plots, progesterone hydroxylation
T1 sequence (P05093 1-508): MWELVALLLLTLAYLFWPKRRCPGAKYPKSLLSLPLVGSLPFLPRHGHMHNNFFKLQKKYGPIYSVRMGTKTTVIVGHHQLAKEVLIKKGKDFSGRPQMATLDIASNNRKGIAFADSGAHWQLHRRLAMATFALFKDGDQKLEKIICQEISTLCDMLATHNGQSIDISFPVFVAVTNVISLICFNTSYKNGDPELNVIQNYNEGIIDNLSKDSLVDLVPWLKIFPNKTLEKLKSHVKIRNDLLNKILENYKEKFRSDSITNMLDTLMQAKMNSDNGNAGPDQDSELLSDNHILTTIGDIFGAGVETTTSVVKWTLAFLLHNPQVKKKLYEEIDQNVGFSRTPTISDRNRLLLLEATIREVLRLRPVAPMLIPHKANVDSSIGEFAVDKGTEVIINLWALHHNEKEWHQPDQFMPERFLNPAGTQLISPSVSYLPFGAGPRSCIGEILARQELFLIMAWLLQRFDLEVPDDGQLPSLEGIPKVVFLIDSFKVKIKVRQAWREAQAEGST

CYP17A1 = CYP17A1 inhibitor; statement in introduction, no reference given; cited from earlier work

SMILES | type of difference spectrum induced [1] | Kd [1] | Ki [2] | mode of inhibition ([2]; listed as Abi) | potency relative to ketoconazole (CYP17A1) | mode of inhibition [2] | Type of inhibition ([2]; progesterone as substrate)
C[C@]12CC[C@H](O)CC1=CC[C@@H]1[C@@H]2CC[C@]2(C)C(c3cccnc3)=CC[C@@H]12 [Abiraterone, abiraterone, reference compound] | type II difference spectrum | 2.6 ± 3.2 nM | 27 nM | mixed-type inhibitors | about 20 times | – | –
C[C@]12CC[C@@H](O)C[C@@H]1CC[C@@H]1[C@@H]2CC[C@]2(C)C(c3cccnc3)=CC[C@@H]12 [Compound 5, 17-(3-pyridyl)-5α-androsta-16-ene-3α-ol] | type II difference spectrum | – | 14 nM | – | – | mixed-type inhibitors; also recorded: mixed competitive-noncompetitive inhibition | –
C[C@]12CCC(=O)C[C@@H]1CC[C@@H]1[C@@H]2CC[C@]2(C)C(c3cccnc3)=CC[C@@H]12 [Compound 6, 17-(3-pyridyl)-5α-androsta-16-ene-3-one] | type II difference spectrum | – | 7 nM | – | – | mixed-type inhibitors; also recorded: mixed competitive-noncompetitive inhibition | –
C[C@]12CCC(=O)C=C1CC[C@@H]1[C@@H]2CC[C@]2(C)C(c3cccnc3)=CC[C@@H]12 [Compound 11, 17-(3-pyridyl)androsta-4,16-dien-3-one] | type II difference spectrum | – | 22 nM | – | – | mixed-type inhibitors; also recorded: mixed competitive-noncompetitive inhibition | –
C[C@]12CC[C@@H](O)C=C1CC[C@@H]1[C@@H]2CC[C@]2(C)C(c3cccnc3)=CC[C@@H]12 [Compound 13, 17-(3-pyridyl)androsta-4,16-dien-3α-ol] | type II difference spectrum | 1660 ± 286 nM | 80 nM | – | – | primarily non-competitive inhibition; also recorded: non-competitive inhibitor; also recorded: primarily noncompetitive; also recorded: largely noncompetitive mode of inhibition | N
